Patent US8383637B2, “2-amino-quinazoline derivatives useful as inhibitors of β-secretase (BACE)” (Jansssen Pharmaceutica N.V., priority 2004, dated 2013)
Where “and” joins values, the source holds several entries; their conditions need not be identical. Equal values may be shown once.

Molecular target: T1, β-secretase(BACE) (Homo sapiens, UniProt P56817)
T1 construct: purchased Panvera
Assay: BACE FS1% Inhibition Assay
Format: biochemical
Conditions: FS1 substrate
Summary of the method: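 Human BACE (4 μg/mL working solution) preincubated 20 min at room temperature with compound, then FS1 substrate (300 μg/mL working solution) added and incubated 1 h at room temperature. Percent inhibition calculated at each compound concentration against blank and vehicle controls.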

T1 sequence (P56817 46-501): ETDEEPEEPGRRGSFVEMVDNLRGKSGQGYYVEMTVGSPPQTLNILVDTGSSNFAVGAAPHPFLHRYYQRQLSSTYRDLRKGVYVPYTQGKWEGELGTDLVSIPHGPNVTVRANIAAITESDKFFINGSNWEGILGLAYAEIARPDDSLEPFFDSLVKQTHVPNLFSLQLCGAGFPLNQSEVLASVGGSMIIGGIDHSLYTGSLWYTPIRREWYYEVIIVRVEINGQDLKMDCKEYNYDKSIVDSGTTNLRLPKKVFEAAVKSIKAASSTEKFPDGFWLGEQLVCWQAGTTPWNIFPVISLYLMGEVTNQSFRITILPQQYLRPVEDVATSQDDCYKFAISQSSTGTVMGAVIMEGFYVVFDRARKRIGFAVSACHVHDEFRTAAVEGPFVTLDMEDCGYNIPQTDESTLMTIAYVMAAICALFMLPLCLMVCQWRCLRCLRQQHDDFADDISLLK

Row | Compound | % Inhibition (FS) 0.3 μM (0.3 μM test compound) | % Inhibition (FS) 1 μM (1 μM test compound) | % Inhibition (FS) 3 μM (3 μM test compound) | % Inhibition (FS) 3 μM (3 μM test compound, 3 µM) | inhibition at 0.3 µM (0.3 μM test compound, read-out: % Inhibition (FS) 0.3 μM) | inhibition at 1 µM (1 μM test compound, read-out: % Inhibition (FS) 1 μM) | inhibition at 3 µM (3 μM test compound, read-out: % Inhibition (FS) 3 μM)
1 | C=CCc1cccc(C)c1Oc1ccc2c(c1)CN(Cc1cccc(C(=O)N(C)C3CCCCC3)c1)C(N)=N2 [Compound 480] | <30% | <30% | 38% | – | – | – | –
2 | C=CCc1cccc(OC)c1Oc1ccc2c(c1)CN(Cc1cccc(C(=O)N(C)C3CCCCC3)c1)C(N)=N2 [Compound 481] | <30% | <30% | 32% | – | – | – | –
3 | CCCc1cccc(C)c1Oc1ccc2c(c1)CN(Cc1cccc(C(=O)N(C)C3CCCCC3)c1)C(N)=N2 [Compound 482] | <30% | <30% | 43% | – | – | – | –
4 | CN(C(=O)c1cccc(CN2Cc3cc(Oc4ccccc4C(=O)N4CCCC4)ccc3N=C2N)c1)C1CCCCC1 [Compound 483] | <30% | <30% | <30% | – | – | – | –
5 | NC1=Nc2ccc(Oc3ccccc3)cc2CN1[C@H](CNC(=O)C1CCCCC1)C1CCCCC1 [Compound 484] | <30% | <30% | 62% | – | – | – | –
6 | C[C@@H](CNC(=O)C1CCCCC1)N1Cc2cc(Oc3ccccc3)ccc2N=C1N [Compound 486] | <30% | <30% | <30% | – | – | – | –
7 | COc1ccccc1-c1ccc2c(c1)CN(CCNC(=O)C1(C(N)=O)CC1)C(N)=N2 [Compound 488] | <30% | <30% | <30% | – | – | – | –
8 | COc1ccccc1-c1ccc2c(c1)CN(CCNC(=O)CN)C(N)=N2 [Compound 490] | <30% | <30% | <30% | – | – | – | –
9 | COc1ccccc1-c1ccc2c(c1)CN(CCNC(=O)C1CCN(C(C)=O)CC1)C(N)=N2 [Compound 491] | <30% | <30% | – | 44% and <30% | – | – | –
10 | COc1ccccc1-c1ccc2c(c1)CN(CCNC(=O)CCN)C(N)=N2 [Compound 493] | <30% | <30% | 49% | – | – | – | –
11 | COc1ccccc1-c1ccc2c(c1)CN(CCNC(=O)CCCN)C(N)=N2 [Compound 494] | <30% | <30% | <30% | – | – | – | –
12 | CC(C)(C)OC(=O)N1CCC(N2Cc3cc(Oc4ccccc4)ccc3N=C2N)CC1 [Compound 499, 4-(2-Amino-6-phenoxy-4H-quinazolin-3-yl)-piperidine-1-carboxylic acid tert-butyl ester] | – | – | – | – | < 30% | < 30% | < 30%
13 | CN(C(=O)c1ccc(CN2Cc3cc(Oc4ccccc4)ccc3N=C2N)s1)C1CCCCC1 [Compound 503] | <30% | <30% | 90% | – | – | – | –
14 | CC1CCCCN1C(=O)CCCC(CCC(=O)N1CCCCC1C)N1Cc2cc(Oc3ccccc3)ccc2N=C1N (stereo not drawn) [Compound 504] | <30% | 31% | 96% | – | – | – | –
15 | COc1ccccc1-c1ccc2c(c1)CN([C@@H](CCC(=O)N(C)C1CCCCC1)C1CCCCC1)C(N)=N2 [Compound 506] | 106% | 115% | 128% | – | – | – | –
16 | CC(C)(C)OC(=O)N1CCC(CN2Cc3cc(Oc4ccccc4)ccc3N=C2N)CC1 [Compound 509] | <30% | <30% | 41% | – | – | – | –
17 | CC(C)(C)OC(=O)N1CCCCC(N2Cc3cc(Oc4ccccc4)ccc3N=C2N)C1 (stereo not drawn) [Compound 510] | <30% | <30% | 37% | – | – | – | –
18 | CN(C(=O)c1cccc(CN2Cc3cc(Oc4ccccc4C4CCCC4)ccc3N=C2N)c1)C1CCCCC1 [Compound 512] | <30% | <30% | 51% | – | – | – | –
19 | CN(C(=O)c1cccc(CN2Cc3cc(OCc4ccccc4-c4ccccc4)ccc3N=C2N)c1)C1CCCCC1 [Compound 513] | <30% | <30% | <30% | – | – | – | –
